These results are taken from patent US11576887B2, “Nitro-oleic acid controlled release platform to induce regional angiogenesis in abdominal wall repair” (University of Pittsburgh—Of the Commonwealth System of …, priority 2017, dated 2023).

“Also recorded” adds a separate entry of the source.

A short description of data set [1]: NO2-OA controlled release in vitro from PLGA microparticles and scaffolds in lipase solution. In kind it is physicochemical. As to the method:
NO2-OA in microparticles and scaffolds was extracted by dissolving the samples in 200 μL, HFIP with 0.5 pmol NO2−^[13C18]OA internal standard, and extracted three times with 1 mL methanol, each time vortexing and centrifuging at 15,000 xg for 10 min at 4° C. Then, the collected methanol was dried under a stream of nitrogen, reconstituted in 100 μL methanol and analyzed by high performance liquid chromatography-electrospray ionization-tandem mass spectrometry (HPLC-ESI-MS/MS). Controlled release (n=3) of NO2-OA in microparticles (FIG. 1D) and scaffolds (FIGS. 3B) was studied in 50 mM phosphate buffer, pH 7.4 with 0.2 mg/mL porcine lipase at 37° C. Aliquots were collected at various time points, spiked with 15 pmol NO2−^[13C18]OA, 1 mL acetonitrile was added and then, samples were vortexed, centrifuged and analyzed by HPLC-ESI-MS/MS. At each time point a fresh incubating solution was utilized.
Analysis of NO2-OA was performed by HPLC-ESI-MS/MS. […] NO2-OA was analyzed in negative mode with the following parameters: declustering potential (DP)—75V, collision energy (CE)—35 eV, desolvation temperature of 700° C., and a multiple reaction monitoring (MRM) transition 326.3/46. Quantification of NO2-OA in samples was performed by stable isotopic dilution analysis using a NO2-OA calibration curve in the presence of NO2-[^13C18]OA internal standard (MRM 344.3/46).

Data set [2] relates to rat abdominal wall partial thickness defect. Briefly: Rat abdominal wall partial thickness defect repair, histological assessment of 8 wk explants. In kind it is in vivo, Sprague-Dawley rats. The method, then:
At 8 wk post-implantation samples were retrieved, fixed in 10% formalin solution for ≥24 h, embedded in paraffin and serially sectioned into specimens 10 μm in thickness. Next, hematoxylin and eosin (H&E) and Masson' trichrome (MT) staining of pre implantation scaffolds and explants were utilized to evaluate: polymeric fiber volume, newly formed tissue, cellular infiltration, and scar area (FIG. 4-FIG. 5). In order to assess the foreign body response a custom-made algorithm, developed in Matlab (Mathwork, Natick Mass.), was utilized to segment and quantify collagen rich areas (FIG. 4G-4H). The algorithm is based on a two-phase iterative process known as k means clustering. In step one, given an integer k and an array of data, k cluster centroids were identified minimizing the total squared Euclidean distance between each pixel and its closest RGB centroid. With k=4, the algorithm segmented each image into 4 color groups corresponding to background, muscle tissue, collagen or de-novo ECM, and scaffold.
At the macroscopic scale, cross sections were utilized to quantify explant thickness. NIH Image J was utilized to identify the explant central line, draw equi-spaced segments (n=10) perpendicular to this line intersecting the abdominal wall border, and calculate the mean of their lengths. This measure was coupled with in situ explant visual inspection (FIG. 6). […]

Data set [3] shares this test system. Nature of the data set: Blood vessel morphological assessment (MT staining, CD31/αSMA immunofluorescence) of 8 wk explants. In kind it is in vivo, Sprague-Dawley rats. To be noted: rat abdominal wall defect model, 8 wk end-point. From the text: Adult female Sprague-Dawley rats 10-12 wk old, ˜250 g in weight (Harlan Sprague Dawley Inc., Indianapolis, Ind., USA) were used for the abdominal wall repair procedure. The experiment was designed to assess the effects of NO2-FA controlled release on angiogenesis. Therefore, a partial wall defect was preferred to a full wall defect model, this enabled evaluation of the impact of drug release on the tissue underneath the abdominal wall patch. The surgical protocol was adapted from a procedure previously established Lai et al. Peritoneal Regeneration Induced by an Acellular Bovine Pericardial Patch in the Repair of Abdominal Wall Defects. Journal of Surgical Research 127, 85, 2005. In brief, inhalation of 1.25-2.5% (maintenance-induction) isoflurane with 100% oxygen was adopted as anesthetic. The skin was shaved and the surgical field was prepared by sterilization with povidone-iodine solution, the rats were positioned in dorsal recumbency on a heating blanket, the operating environment was kept sterile during the procedure. […]
Regional angiogenesis was investigated by combining morphological with topological information. Morphological assessment included quantification of blood vessel/mm^2 and vessel type and was performed with two distinct experiments: histological (FIG. 7, 9) and immunofluorescence assessment (FIG. 8). […]

`CCCCCCCC/C(=C\CCCCCCCC(=O)O)[N+](=O)[O-]` [NO2-OA, 10-nitro-9-trans-octadecenoic acid]: the “NO2-OA release profile from PLGA microparticles” value in data set [1] (50 mM phosphate buffer pH 7.4, 0.2 mg/mL porcine lipase, 37° C, effect of microparticle size) was “sigmoidal”. Further, the “duration of controlled NO2-OA release from PLGA microparticles” value in data set [1] (NO2-OA (1mM), particle size 1-50 μm range) is given as “up to 7 days”. For the same molecule, the “abdominal wall thickness of explants” value in data set [2] (8 wk, compared with healthy native rat abdominal wall) is given as “significantly increased wall thickness”. For the same molecule, the fibrotic response entry in data set [2] (rat abdominal wall defect model) is on record as “significantly reduce fibrotic response”. Further, the “regional angiogenesis / neovascularization” value in data set [3] is “additional effect; also recorded: promotes neovascularization; also recorded: significantly improved regional angiogenesis; also recorded: significantly enhanced regional angiogenesis”.
